Results as given in US20250049787A1, “TREATMENT FOR ACUTE MYELOID LEUKEMIA OR LYMPHOMA” (UNIVERSITY HEALTH NETWORK, priority 2021, published 2025).

Tested on: MV-4-11 xenografts
Experiment: MV-4-11 xenograft model of human AML in CD-1 Nude mice
Format: in vivo
Details: 0.5 mg/kg IP, QW×4 vs vehicle; p=0.137
Protocol: Female 8- to 10-week-old CD-1 Nude mice (Charles River Laboratories) with established MV-4-11 xenografts were treated for 21 days (n=8). MV-4-11 cells is a human AML cell line which endogenously expresses a Fms Related Receptor Tyrosine Kinase 3 (FLT3) internal tandem duplication (ITD) mutation. Animal weights were monitored daily, and tumor volume was measured three times per week. Tumor volume (mm^3) was defined as follows, length×width^2/2. Percentage tumor growth inhibition (% TGI) was defined as follows, 100×[1−(TVf,treated−TVi,treated)/(TVf,control−TVi,control)], where TVf is the average tumor volume at the end of study, and TVi is the average tumor volume at the initiation of treatment. In cases where tumor regression occurred, percentage tumor regression was defined as follows, 100×[1−(TVf,treated/TVi,treated)]. At the completion of the study, the mice were sacrificed by an anesthetic overdose. The Institutional Animal Care and Use Committee of the University Health Network approved all animal procedures. […] Data are represented as mean±SEM. p values were calculated using Student's/test.

## CC[C@]1(O)C[C@H]2CN(CCc3c([nH]c4ccccc34)[C@@](C(=O)OC)(c3cc4c(cc3OC)N(C=O)[C@H]3[C@@](O)(C(=O)OC)[C@H](OC(C)=O)[C@]5(CC)C=CCN6CC[C@]43[C@@H]65)C2)C1 [Vincristine, reference compound]
  Day 10 TGI (tumor growth inhibition): 62%
